Structures are written as SMILES.

By IC50 is commonly meant the concentration that gives 50% inhibition. Low values mean greater potency in that assay, high ones weaker potency in that assay.

One test deals with T1, Beta-galactosidase (Bos taurus, UniProt Q58D55).
T1 sequence (Q58D55 whole entry): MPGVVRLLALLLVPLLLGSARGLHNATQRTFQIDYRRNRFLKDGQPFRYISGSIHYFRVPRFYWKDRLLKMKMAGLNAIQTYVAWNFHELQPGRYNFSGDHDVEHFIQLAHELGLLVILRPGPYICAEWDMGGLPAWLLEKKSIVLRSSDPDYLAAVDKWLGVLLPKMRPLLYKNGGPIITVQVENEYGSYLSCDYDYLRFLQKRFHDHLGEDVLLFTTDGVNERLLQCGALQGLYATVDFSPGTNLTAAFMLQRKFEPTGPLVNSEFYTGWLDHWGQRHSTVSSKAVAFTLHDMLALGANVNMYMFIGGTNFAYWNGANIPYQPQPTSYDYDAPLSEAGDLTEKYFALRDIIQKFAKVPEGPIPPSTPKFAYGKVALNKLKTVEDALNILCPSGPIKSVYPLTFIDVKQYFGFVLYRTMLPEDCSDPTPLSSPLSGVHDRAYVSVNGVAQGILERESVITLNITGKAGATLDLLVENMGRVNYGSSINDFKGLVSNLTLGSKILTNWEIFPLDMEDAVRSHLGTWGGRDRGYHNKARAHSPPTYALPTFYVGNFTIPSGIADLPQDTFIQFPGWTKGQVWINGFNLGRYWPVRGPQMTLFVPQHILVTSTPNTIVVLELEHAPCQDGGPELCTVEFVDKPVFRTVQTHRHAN
The test is described as follows: Inhibitory activity against beta-galactosidase from bovine liver.

Another test has as its target T2, Alpha-galactosidase A (Rattus norvegicus, UniProt D3ZJF9).
T2 sequence (D3ZJF9 whole entry): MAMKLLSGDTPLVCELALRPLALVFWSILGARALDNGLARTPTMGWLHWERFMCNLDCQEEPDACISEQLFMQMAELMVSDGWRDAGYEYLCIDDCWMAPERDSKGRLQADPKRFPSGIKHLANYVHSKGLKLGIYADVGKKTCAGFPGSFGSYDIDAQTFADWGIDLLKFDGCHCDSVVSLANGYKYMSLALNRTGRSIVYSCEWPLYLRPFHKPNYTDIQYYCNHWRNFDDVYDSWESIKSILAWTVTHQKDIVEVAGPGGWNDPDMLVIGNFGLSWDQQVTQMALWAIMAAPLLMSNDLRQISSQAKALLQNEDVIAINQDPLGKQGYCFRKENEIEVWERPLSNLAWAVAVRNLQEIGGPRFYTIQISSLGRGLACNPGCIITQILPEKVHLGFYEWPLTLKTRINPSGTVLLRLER
The test is described as follows: Inhibitory activity against alpha-galactosidase from rat epididymis.

Regarding `OC[C@H]1N[C@H](CO)[C@@H](O)[C@@H](O)C1O` (single isomer, unassigned), the concentration for half-maximal inhibition (IC50) is 160 µM at Beta-galactosidase and 67 µM against Alpha-galactosidase A.

`OCC1NC(CO)[C@H](O)[C@@H](O)[C@@H]1O` (stereo partly drawn) yielded an IC50 against Alpha-galactosidase A of 4.5 µM.

Source of the values: ChEMBL document CHEMBL1131876, “Revised structure of a homonojirimycin isomer from Aglaonema treubii: first example of a naturally occurring alpha-homoallonojirimycin” (Bioorg Med Chem Lett, 1999).
